In publication PMC8237303 (Heliyon, 2021):
pIC50, pKd, pKi: −log10 of the molar value. Where a name gives a salt, the structure may show the parent alone. Bridge positions count the residues as written; N and C are the ends. Ends that are not written are not given here.

What was measured:
[1] = system: Glutamate receptor (NMDA agonist site); experiment: [3H]-CGP-39653 binding assay; details: Rat cerebral cortex
[2] = system: Glutamate receptor (Kainate); experiment: [3H]-Kainic Acid binding assay; details: Rat whole brain
[3] = system: Imidazoline receptor (Central); experiment: [3H]RX 781094; type: binding; details: Rat cerebral cortex
PAF receptor = experiment: 1-O-Hexadecyl-[3H]-Platelet Activating Factor; type: binding; details: Rabbit platelet
[4] = system: GABA A receptor (Picrotoxin site); experiment: [3H]-EBOB binding assay; set-up: species or system Rat
[5] = target: Neurokinin NK1 receptor (Human) (Homo sapiens, UniProt P25103); experiment: [125I]-Substance P binding assay; details: Human recombinant
Sequence of Neurokinin NK1 receptor (Human) (P25103 whole entry): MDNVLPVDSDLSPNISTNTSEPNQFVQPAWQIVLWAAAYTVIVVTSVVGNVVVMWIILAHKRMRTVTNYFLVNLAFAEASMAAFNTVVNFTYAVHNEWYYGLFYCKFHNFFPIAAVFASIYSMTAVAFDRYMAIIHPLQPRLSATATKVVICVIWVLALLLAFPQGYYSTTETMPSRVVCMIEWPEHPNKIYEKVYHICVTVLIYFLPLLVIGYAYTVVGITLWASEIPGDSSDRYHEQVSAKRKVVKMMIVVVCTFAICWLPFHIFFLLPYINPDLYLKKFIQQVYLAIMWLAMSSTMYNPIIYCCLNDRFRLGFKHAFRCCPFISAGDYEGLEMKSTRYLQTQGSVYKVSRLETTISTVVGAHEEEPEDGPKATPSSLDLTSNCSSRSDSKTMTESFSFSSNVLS

[6] = system: GABA A receptor (Agonist site); experiment: [3H]-Muscimol binding assay; details: Rat cerebellum
[7] = system: Glutamate receptor (NMDA phencycidine site); experiment: [3H]-; type: binding; details: Rat cerebral cortex
[8] = target: Dopamine D2 receptor short isoform (Human) (Homo sapiens, UniProt P14416); experiment: [3H]-Spiperone binding assay; details: Human recombinant
Sequence of Dopamine D2 receptor short isoform (Human) (P14416 1-414 isoform P14416-2): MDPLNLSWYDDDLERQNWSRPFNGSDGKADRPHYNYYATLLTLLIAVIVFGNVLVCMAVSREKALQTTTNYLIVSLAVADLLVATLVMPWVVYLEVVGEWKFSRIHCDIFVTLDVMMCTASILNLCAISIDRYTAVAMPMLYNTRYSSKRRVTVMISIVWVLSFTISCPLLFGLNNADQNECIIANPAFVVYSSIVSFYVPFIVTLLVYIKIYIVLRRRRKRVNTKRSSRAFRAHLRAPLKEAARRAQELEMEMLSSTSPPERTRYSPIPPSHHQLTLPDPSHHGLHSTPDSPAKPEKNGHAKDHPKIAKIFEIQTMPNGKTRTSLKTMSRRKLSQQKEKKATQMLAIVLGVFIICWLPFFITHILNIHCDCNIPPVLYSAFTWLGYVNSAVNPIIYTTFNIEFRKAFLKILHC

[9] = target: Serotonin transporter (Human) (Homo sapiens, UniProt P31645); experiment: [3H]-Imipramine hydrochloride binding assay; details: Human recombinant
Sequence of Serotonin transporter (Human) (P31645 whole entry): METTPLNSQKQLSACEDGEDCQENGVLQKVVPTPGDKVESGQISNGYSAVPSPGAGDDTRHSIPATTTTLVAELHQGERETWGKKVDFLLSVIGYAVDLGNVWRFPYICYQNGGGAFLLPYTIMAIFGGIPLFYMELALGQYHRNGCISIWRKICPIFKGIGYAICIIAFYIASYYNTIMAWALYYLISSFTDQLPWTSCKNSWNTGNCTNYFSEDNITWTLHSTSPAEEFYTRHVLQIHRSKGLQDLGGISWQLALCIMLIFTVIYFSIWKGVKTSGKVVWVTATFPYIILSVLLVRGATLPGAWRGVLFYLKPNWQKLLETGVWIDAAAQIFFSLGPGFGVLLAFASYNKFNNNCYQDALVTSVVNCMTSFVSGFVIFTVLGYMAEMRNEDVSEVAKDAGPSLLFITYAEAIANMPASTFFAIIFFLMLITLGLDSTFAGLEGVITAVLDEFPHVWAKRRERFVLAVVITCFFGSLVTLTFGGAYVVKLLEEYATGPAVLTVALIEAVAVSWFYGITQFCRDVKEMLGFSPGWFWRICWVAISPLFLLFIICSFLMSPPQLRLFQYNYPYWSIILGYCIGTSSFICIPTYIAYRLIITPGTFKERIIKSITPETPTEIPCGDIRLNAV

[10] = target: Adenosine A1 receptor (Human) (Homo sapiens, UniProt P30542); experiment: [3H]8-Cyclopentyl-1,3-dipropylxanthine; type: binding; details: Human recombinant
Sequence of Adenosine A1 receptor (Human) (P30542 whole entry): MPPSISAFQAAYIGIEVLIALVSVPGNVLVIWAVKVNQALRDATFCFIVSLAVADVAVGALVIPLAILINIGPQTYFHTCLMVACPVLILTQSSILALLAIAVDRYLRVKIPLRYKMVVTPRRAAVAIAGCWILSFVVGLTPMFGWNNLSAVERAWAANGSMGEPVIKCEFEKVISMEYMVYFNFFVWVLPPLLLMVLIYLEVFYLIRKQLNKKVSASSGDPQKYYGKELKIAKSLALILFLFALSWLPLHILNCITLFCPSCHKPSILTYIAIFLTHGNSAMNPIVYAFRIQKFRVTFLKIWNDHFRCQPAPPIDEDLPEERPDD

[11] = system: Bombesin receptor (Non-selective); experiment: [125I]-Bombesin binding assay; details: Rat whole brain
[12] = target: Prostanoid EP2 receptor (Human) (Homo sapiens, UniProt P43116); experiment: [3H]-Prostaglandin E2 binding assay; details: Human recombinant
[13] = system: Ca Channel (Type L, Dihydropyridine); experiment: [3H]-PN200-110 binding assay; details: Rat cerebral cortex
CRF1 receptor (Human) = target: T1, CRF1 receptor (Human) (Homo sapiens, UniProt P34998); experiment: [125I]-Corticotropin Releasing Factor; type: binding; details: Human recombinant
T1 sequence (P34998 24-415): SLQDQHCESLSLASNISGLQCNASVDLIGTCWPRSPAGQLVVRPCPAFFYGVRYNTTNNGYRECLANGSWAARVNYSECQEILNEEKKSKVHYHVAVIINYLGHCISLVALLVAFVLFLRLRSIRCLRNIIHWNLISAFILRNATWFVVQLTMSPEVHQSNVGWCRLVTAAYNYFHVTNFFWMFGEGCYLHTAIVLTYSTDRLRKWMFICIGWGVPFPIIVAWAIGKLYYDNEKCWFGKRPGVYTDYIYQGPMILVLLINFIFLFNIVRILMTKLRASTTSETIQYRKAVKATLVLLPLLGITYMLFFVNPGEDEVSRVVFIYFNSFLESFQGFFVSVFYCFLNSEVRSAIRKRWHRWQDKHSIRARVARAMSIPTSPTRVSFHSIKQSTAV

α1B-Adrenergic receptor = α1B-Adrenergic receptor (Rattus norvegicus, UniProt P15823); experiment: [3H]-Prazosin binding assay; details: Rat liver
Sequence of α1B-Adrenergic receptor (P15823 whole entry): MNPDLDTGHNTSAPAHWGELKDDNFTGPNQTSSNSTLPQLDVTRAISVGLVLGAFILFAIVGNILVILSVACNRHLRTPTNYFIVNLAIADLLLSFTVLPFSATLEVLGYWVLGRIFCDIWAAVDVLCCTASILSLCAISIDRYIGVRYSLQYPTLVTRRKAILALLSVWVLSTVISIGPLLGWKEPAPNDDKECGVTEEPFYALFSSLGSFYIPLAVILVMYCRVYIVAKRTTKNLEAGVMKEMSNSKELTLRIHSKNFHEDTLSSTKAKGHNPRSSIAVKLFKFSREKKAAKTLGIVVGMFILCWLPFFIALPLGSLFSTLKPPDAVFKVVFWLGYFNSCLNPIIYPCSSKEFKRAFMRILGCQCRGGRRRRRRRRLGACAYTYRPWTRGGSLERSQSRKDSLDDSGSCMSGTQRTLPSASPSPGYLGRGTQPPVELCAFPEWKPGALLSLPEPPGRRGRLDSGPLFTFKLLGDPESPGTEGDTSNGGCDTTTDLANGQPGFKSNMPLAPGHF

α1A-Adrenergic receptor = α1A-Adrenergic receptor (Rattus norvegicus, UniProt P43140); experiment: [3H]-Prazosin binding assay; details: Rat submandibular gland
Sequence of α1A-Adrenergic receptor (P43140 whole entry): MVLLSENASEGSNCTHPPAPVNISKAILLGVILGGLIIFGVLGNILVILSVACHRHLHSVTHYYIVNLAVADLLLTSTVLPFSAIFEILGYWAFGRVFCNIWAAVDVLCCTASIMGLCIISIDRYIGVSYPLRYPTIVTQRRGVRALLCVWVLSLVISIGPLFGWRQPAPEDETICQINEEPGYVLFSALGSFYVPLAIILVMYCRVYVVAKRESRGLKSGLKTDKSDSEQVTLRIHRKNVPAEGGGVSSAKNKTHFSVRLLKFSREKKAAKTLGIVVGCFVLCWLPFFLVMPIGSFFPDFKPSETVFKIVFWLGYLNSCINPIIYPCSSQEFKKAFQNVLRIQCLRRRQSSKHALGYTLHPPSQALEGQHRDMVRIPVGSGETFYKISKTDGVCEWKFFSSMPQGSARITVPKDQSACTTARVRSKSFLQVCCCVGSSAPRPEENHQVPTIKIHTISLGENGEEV

Leukotriene B4 receptor = experiment: [3H]-Leukotriene B4 binding assay; details: Guinea pig lung
[14] = target: Glutamate receptor (NMDAglycine site) (Rattus norvegicus, UniProt P35439); experiment: [3H]-MDL105,519 binding assay; details: Rat cerebral cortex
Monoamine transporter = experiment: [3H]-α-Dihydrotetrabenazine binding assay; details: Rabbit platelet
[15] = system: GABA A receptor (Benzodiazepine site); experiment: [3H]-Flunitrazepam binding assay; details: Rat whole brain
[16] = system: Glutamate receptor (AMPA); experiment: D,L-alpha-[3H]-Amino-3-Hydroxy-Methylisoxazole-4-Propionic Acid; type: binding; details: Rat cerebral cortex
[17] = system: Ca channel (Type L, Benzothiazepine); experiment: [3H]-; type: binding; details: Rat cerebral cortex
[18] = target: Dopamine transporter (Human) (Homo sapiens, UniProt Q01959); experiment: [3H]-WIN35,428 binding assay; details: Human recombinant
[19] = target: Adenosine A3 receptor (Human) (Homo sapiens, UniProt P0DMS8); experiment: [125I]-AB-MECA binding assay; details: Human recombinant
Leukotriene D4 receptor = Leukotriene D4 receptor (Cavia porcellus, UniProt Q2NNR5); experiment: [3H]-Leukotriene D4 binding assay; details: Guinea pig lung
Sequence of Leukotriene D4 receptor (Q2NNR5 whole entry): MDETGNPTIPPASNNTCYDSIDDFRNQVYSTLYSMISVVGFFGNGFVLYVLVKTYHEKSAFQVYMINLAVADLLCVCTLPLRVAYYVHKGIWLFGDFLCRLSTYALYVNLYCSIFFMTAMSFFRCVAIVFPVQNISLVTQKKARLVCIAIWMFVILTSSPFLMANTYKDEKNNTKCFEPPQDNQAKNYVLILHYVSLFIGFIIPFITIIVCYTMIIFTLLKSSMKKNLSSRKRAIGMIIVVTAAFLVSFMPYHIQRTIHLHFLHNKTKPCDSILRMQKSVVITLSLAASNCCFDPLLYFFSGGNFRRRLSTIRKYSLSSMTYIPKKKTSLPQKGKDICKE

IP3 receptor = experiment: D-[3H]-Inositol-1,4,5-Triphosphate binding assay; details: Rat cerebellum
[20] = target: Glucocorticoid receptor (Human) (Homo sapiens, UniProt P04150); experiment: [3H]-Dexamethasone binding assay; details: Human recombinant
Sequence of Glucocorticoid receptor (Human) (P04150 whole entry): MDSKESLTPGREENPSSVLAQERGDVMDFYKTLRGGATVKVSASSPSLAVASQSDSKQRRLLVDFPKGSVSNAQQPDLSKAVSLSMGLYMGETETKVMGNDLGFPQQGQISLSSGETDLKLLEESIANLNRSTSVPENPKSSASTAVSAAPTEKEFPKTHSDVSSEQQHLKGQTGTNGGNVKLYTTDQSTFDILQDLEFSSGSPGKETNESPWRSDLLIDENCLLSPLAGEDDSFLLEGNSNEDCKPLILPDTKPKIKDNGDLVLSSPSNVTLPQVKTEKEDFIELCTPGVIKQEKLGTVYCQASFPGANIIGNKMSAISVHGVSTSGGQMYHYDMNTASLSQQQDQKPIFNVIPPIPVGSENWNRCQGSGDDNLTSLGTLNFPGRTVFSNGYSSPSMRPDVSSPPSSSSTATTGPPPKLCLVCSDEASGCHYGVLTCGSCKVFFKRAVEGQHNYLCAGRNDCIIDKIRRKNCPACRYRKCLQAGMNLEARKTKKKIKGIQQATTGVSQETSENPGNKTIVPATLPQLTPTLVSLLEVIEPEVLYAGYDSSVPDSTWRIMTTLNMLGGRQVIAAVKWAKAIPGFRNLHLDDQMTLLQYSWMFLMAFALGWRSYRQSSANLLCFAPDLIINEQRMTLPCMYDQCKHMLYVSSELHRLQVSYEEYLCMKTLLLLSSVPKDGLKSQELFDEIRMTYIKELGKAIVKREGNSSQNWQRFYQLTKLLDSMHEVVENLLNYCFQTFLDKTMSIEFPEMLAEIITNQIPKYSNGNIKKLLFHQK

[21] = target: Neurokinin NK3 receptor (Human) (Homo sapiens, UniProt P29371); experiment: [125I]-Neurokinin B; type: binding; details: Human recombinant
Sequence of Neurokinin NK3 receptor (Human) (P29371 whole entry): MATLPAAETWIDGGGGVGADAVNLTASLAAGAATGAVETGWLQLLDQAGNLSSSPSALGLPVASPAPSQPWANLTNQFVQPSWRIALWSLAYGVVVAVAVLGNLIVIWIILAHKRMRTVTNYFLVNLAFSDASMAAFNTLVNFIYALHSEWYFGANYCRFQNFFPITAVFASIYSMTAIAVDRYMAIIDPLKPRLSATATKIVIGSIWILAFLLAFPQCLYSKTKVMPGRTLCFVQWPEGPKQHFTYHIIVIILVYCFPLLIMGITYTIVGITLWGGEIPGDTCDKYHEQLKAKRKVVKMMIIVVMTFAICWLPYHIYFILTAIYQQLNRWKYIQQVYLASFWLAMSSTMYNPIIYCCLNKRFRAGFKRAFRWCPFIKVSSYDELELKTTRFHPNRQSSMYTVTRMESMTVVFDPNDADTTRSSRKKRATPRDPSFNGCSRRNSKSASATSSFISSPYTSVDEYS

K Channel SkCa = experiment: [125I]-Apamin binding assay; details: Rat whole brain
[22] = system: Glutamate (NMDA polyamine site); experiment: [3H]-Ifenprodil binding assay; details: Rat cerebral cortex
[23] = system: Ca channel (Type L, Phenylalkylamine); experiment: [3H]-; type: binding; details: Rat cerebral cortex
[24] = system: Nicotinic receptor (Human); experiment: [3H]-; type: binding; details: Human receptor (Non-recombinant)
[25] = system: Glycine receptor (Strychnine sensitive); type: binding; details: Rat spinal cord
[26] = target: Opiate δ receptor (Human) (Homo sapiens, UniProt P41143); experiment: [3H]-Naltrindole binding assay; details: Human recombinant
Sequence of Opiate δ receptor (Human) (P41143 whole entry): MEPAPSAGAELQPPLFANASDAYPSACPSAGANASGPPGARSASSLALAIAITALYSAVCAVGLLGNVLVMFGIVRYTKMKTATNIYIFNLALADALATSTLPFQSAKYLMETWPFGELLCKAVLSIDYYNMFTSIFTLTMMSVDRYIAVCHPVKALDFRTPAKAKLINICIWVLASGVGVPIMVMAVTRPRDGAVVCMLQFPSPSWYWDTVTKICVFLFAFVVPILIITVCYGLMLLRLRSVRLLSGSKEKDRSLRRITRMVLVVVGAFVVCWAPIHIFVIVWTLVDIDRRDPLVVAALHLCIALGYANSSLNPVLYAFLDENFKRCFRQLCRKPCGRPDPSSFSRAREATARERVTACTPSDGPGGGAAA

K Channel KATP = experiment: [3H]-Glybenclamide binding assay; details: Rat whole brain

Q: How did the “Inhibition by a positive substance (%)” value [1] turn out when `Cl.N[C@@H](CCC(=O)O)C(=O)O` [L-Glutamic acid hydrochloride] was run?
A: The value was 100%.

Q: With `C=C(C)[C@H]1CN[C@H](C(=O)O)[C@H]1CC(=O)O.O` [Kainic acid monohydrate] as the compound, how does the “Inhibition by a positive substance (%)” value [2] read?
A: The value was 100%.

Q: How did the “Inhibition by a positive substance (%)” value [3] turn out when `CC(=O)O.N=C(N)N/N=C/c1c(Cl)cccc1Cl` [Guanabenz acetate salt] was run?
A: Its value is 100%.

Q: With `CCCCCCCCCCCCCCCCOC[C@@H](O)COP(=O)([O-])OCC[N+](C)(C)C` [1-O-Palmityl-sn-glycero-3-phosphocholine] as the compound, how does the “Inhibition by a positive substance (%)” value (PAF receptor) read?
A: The value was 100%.

Q: What does the source list for Picrotoxin?
A: Inhibition by a positive control substance (%) ([4]; Rat cerebral cortex): 94.33%; pIC50 ([4]; read-out: IC50 for inhibition of the [3H]-EBOB binding, rat cerebral cortex preparation, 7 concentrations, duplicate): 6.22; pKi ([4]; read-out: Ki (mol/L), inhibition of the binding of [3H]-EBOB, GABAA (Picrotoxin site), Ki=IC50/(1+[L/Kd])): 6.50

Q: `Ic1ccccc1CN[C@@H]1C2CCN(CC2)[C@@H]1C(c1ccccc1)c1ccccc1` [L-703,606 oxalate salt hydrate] was tested. Which “Inhibition by a positive substance (%)” value [5] did it give?
A: The value was 99.87%.

Q: How did the “Inhibition by a positive substance (%)” value [6] turn out when `NCc1cc(=O)[nH]o1` [Muscimol] was run?
A: The value was 99.04%.

Q: Which “Inhibition by a positive substance (%)” value [7] does the source give for (+)-MK-801 hydrogen maleate here?
A: The value was 100%.

Q: How did the “Inhibition by a positive substance (%)” value [8] turn out when `CC(C)(C)[C@]1(O)CCN2C[C@H]3c4ccccc4CCc4cccc(c43)[C@@H]2C1` [(+)-Butaclamol hydrochloride] was run?
A: Its value is 94.16%.

Q: `CN(C)CCCN1c2ccccc2CCc2ccccc21` [Imipramine hydrochloride] was tested. Which “Inhibition by a positive substance (%)” value [9] did it give?
A: The value was 96.87%.

Q: For `CCCn1c(=O)c2[nH]c(C3CCCC3)nc2n(CCC)c1=O` [8-Cyclopentyl-1,3-dipropylxanthine], which “Inhibition by a positive substance (%)” value [10] is on record?
A: The value was 96.61%.

Q: For Bombesin acetate hydrate, which “Inhibition by a positive control substance (%)” value [11] is on record?
A: Its value is 98.81%.

Q: `C#Cc1ccc(C23OCC(CCC)(CO2)CO3)cc1` [[^3H]-EBOB, [^3H]-ethynylbicycloorthobenzoate] was tested. Which pKd ([4]; read-out: Kd (nmol/L), binding of the radio-labeled ligand, 7 concentrations, GABAA (Picrotoxin site)) did it give?
A: The pKd was 8.38.

Q: For `CCCCC[C@H](O)/C=C/[C@H]1[C@H](O)CC(=O)[C@@H]1C/C=C\CCCC(=O)O` [Prostaglandin E2], which “Inhibition by a positive substance (%)” value [12] is on record?
A: The value was 100%.

Q: `CCOC(=O)C1=C(C)NC(C)=C(C(=O)OC)C1c1cccc([N+](=O)[O-])c1` (stereo not drawn) [Nitrendipine] was tested. Which “Inhibition by a positive substance (%)” value [13] did it give?
A: Its value is 100%.

Q: Which “Inhibition by a positive substance (%)” value (CRF1 receptor (Human)) does the source give for “Urocortin human (DNPSLSIDLTFHLLRTLLELARTQSQRERAEQNRIIFDSV; ends and bridges not checked; UniProt P55089 83-122, looked up)” here?
A: Its value is 100%.

Q: With `COc1cc2nc(N3CCN(C(=O)c4ccco4)CC3)nc(N)c2cc1OC` [Prazosin hydrochloride] as the compound, how does the “Inhibition by a positive substance (%)” value (α1B-Adrenergic receptor) read?
A: Its value is 100%.

Q: And the “Inhibition by a positive substance (%)” value (α1A-Adrenergic receptor)?
A: Its value is 100%.

Q: For `CCCCC/C=C\C[C@@H](O)/C=C/C=C/C=C\[C@@H](O)CCCC(=O)O` [Leukotriene B4], which “Inhibition by a positive control substance (%)” value (Leukotriene B4 receptor) is on record?
A: The value was 92.71%.

Q: With `O=C(O)/C(=C/c1c(C(=O)O)[nH]c2cc(Cl)cc(Cl)c12)c1ccccc1` [MDL105,519] as the compound, how does the “Inhibition by a positive substance (%)” value [14] read?
A: Its value is 100%.

Q: How did the “Inhibition by a positive substance (%)” value (Monoamine transporter) turn out when `O=C(O)C(O)C(O)C(=O)O.O=C(c1ccc(F)cc1)C1CCN(CCn2c(=O)[nH]c3ccccc3c2=O)CC1` [Ketanserin tartrate salt] was run?
A: The value was 100%.

Q: How did the “Inhibition by a positive substance (%)” value [15] turn out when `CN1C(=O)CN=C(c2ccccc2)c2cc(Cl)ccc21` [Diazepam] was run?
A: Its value is 100%.

Q: `Cc1o[nH]c(=O)c1C[C@H](N)C(=O)O` [(S)-AMPA] was tested. Which “Inhibition by a positive substance (%)” value [16] did it give?
A: The value was 100%.

Q: Which “Inhibition by a positive substance (%)” value [17] does the source give for `COc1ccc([C@@H]2Sc3ccccc3N(CCN(C)C)C(=O)[C@@H]2OC(C)=O)cc1.Cl` (relative stereo) [(+)-cis-Diltiazem hydrochloride] here?
A: The value was 96.98%.

Q: With `Fc1ccc(C(OCCN2CCN(CCCc3ccccc3)CC2)c2ccc(F)cc2)cc1` [GBR12909 dihydrochloride] as the compound, how does the “Inhibition by a positive control substance (%)” value [18] read?
A: Its value is 99.41%.

Q: How did the “Inhibition by a positive substance (%)” value [19] turn out when `CNC(=O)[C@H]1O[C@@H](n2cnc3c(NCc4cccc(I)c4)ncnc32)[C@H](O)[C@@H]1O` [IB-MECA] was run?
A: The value was 99.41%.

Q: For `CCCCC/C=C\C\C=C/C=C/C=C/[C@@H](SC[C@H](N)C(=O)NCC(=O)O)[C@@H](O)CCCC(=O)O` [Leukotriene D4], which “Inhibition by a positive substance (%)” value (Leukotriene D4 receptor) is on record?
A: Its value is 96.63%.

Q: How did the “Inhibition by a positive substance (%)” value (IP3 receptor) turn out when `O=P([O-])([O-])OC1C(O)C(O)C(OP(=O)([O-])[O-])C(OP(=O)([O-])[O-])C1O.[K+].[K+].[K+].[K+].[K+].[K+]` [D-myo-Inositol 1,4,5-trisphosphate potassium salt] was run?
A: The value was 100%.

Q: For `C[C@@H]1C[C@H]2[C@@H]3CCC4=CC(=O)C=C[C@]4(C)[C@@]3(F)[C@@H](O)C[C@]2(C)[C@@]1(O)C(=O)CO` [Dexamethasone], which “Inhibition by a positive substance (%)” value [20] is on record?
A: The value was 99.36%.

Q: How did the “Inhibition by a positive substance (%)” value [21] turn out when “Succinyl-[Asp 6, N–Me-Phe 8]-Substance P Fragment 6–11” was run?
A: Its value is 100%.

Q: How did the “Inhibition by a positive substance (%)” value (K Channel SkCa) turn out when “Apamin (CNCKAPETALCARRCQQH-NH2; disulfide 1-11, 3-15; ends not checked; UniProt P01500 28-45, looked up)” was run?
A: The value was 100%.

Q: With `CC(C(O)c1ccc(O)cc1)N1CCC(Cc2ccccc2)CC1.CC(C(O)c1ccc(O)cc1)N1CCC(Cc2ccccc2)CC1.O=C(O)C(O)C(O)C(=O)O` (stereo not drawn) [Ifenprodil tartrate salt] as the compound, how does the “Inhibition by a positive substance (%)” value [22] read?
A: Its value is 99.68%.

Q: With `COc1ccc(CCN(C)CCCC(C#N)(c2cc(OC)c(OC)c(OC)c2)C(C)C)cc1OC.Cl` (racemic) [(±)-Methoxyverapamil hydrochloride] as the compound, how does the “Inhibition by a positive control substance (%)” value [23] read?
A: Its value is 100%.

Q: How did the “Inhibition by a positive substance (%)” value [24] turn out when `Cl.Cl.Clc1ccc(C2CC3CCC2N3)cn1.O` (racemic) [(±)-Epibatidine dihydrochloride hydrate] was run?
A: Its value is 100%.

Q: `O=C1C[C@@H]2OCC=C3CN4CC[C@]56c7ccccc7N1[C@H]5[C@H]2[C@H]3C[C@H]46` [Strychnine] was tested. Which “Inhibition by a positive substance (%)” value [25] did it give?
A: The value was 98.79%.

Q: How did the “Inhibition by a positive substance (%)” value [26] turn out when `CS(=O)(=O)O.Oc1ccc2c3c1O[C@H]1c4oc5ccccc5c4C[C@@]4(O)[C@@H](C2)N(CC2CC2)CC[C@]314` [Naltriben methanesulfonate hydrate] was run?
A: Its value is 100%.

Q: For `COc1ccc(Cl)cc1C(=O)NCCc1ccc(S(=O)(=O)NC(=O)NC2CCCCC2)cc1` [Glibenclamide], which “Inhibition by a positive substance (%)” value (K Channel KATP) is on record?
A: Its value is 100%.
